As a reminder, the pIC50 is −log10 of the IC50, conventionally taken in molar units. Read a low pIC50 as a high IC50.

pIC50: −log10 of the molar value.

Among the data in ChEMBL document CHEMBL5727145, “Aminoindane-, aminotetrahydronaphthalene- and aminobenzocyclobutane-derived PRMT5-inhibitors” (2018) are IC50 values, retold here.

The assay has as its target Protein arginine N-methyltransferase 5 (Homo sapiens, UniProt O14744). As to the kind of experiment: iochemical Assay: Compounds of the invention may be tested for in vitro activity in the following assay: A histone H4 derived peptide is used as substrate (amino acid sequence: […]NH2). Full-length PRMT5 enzyme (NCBI Reference sequence NP-006100.2) was co-expressed with Hiss-MEP50 in insect cells and purified via Nickel immobilized metal affinity and gel filtration chromatograph.The 6 μL assay reactions are run in Greiner brand black 384-well low volume plates. All reactions contained assay buffer (phosphate buffered saline, 0.01% (v/v) Tween-20, 0.01% (w/v) albumin from chicken egg white, 1 mM dithiothreitol, 200 nM peptide substrate, 1 μM S-Adenosyl methionine, and 15 ng/reaction enzyme, with the enzyme being omitted from negative control reactions. Compounds were added in a volume of 100 nL from dilution series prepared in DMSO, positive and negative control reactions receiving the same volume DMSO without compound. The plates were sealed with adhesive seals and incubated for 4 hours at 37° C. Reaction progress was measured using the Transcreener™ EPIGEN methyltransferase assay (BellBrook Labs, Madison, Wis.) as recommended by the manufacturer. To each reaction 2 μL detection mix were added, containing coupling enzymes, fluorescence polarisation tracer, and AMP antibody. […].

Sequence of Protein arginine N-methyltransferase 5 (O14744 whole entry): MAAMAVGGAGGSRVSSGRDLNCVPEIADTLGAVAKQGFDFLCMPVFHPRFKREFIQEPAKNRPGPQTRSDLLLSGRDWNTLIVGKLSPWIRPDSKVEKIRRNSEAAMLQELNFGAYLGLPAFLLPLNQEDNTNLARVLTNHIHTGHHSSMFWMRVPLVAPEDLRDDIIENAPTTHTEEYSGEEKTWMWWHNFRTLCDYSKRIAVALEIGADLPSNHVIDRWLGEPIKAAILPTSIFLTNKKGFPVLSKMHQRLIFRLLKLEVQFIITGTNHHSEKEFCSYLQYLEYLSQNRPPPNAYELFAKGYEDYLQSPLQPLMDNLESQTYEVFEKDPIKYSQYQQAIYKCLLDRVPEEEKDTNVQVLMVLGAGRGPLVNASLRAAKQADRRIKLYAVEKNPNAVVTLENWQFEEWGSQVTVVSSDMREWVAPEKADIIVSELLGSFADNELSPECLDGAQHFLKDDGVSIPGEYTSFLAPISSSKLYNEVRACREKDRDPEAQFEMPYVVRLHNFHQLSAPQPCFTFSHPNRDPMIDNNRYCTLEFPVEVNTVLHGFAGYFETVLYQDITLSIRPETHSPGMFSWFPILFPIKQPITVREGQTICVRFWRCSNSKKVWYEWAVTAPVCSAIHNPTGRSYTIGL

As for `CNC(=O)c1cccc(C(=O)NC[C@@H](O)CNC2Cc3ccccc3C2)c1`, the pIC50 is 4.50.

For the compound `COc1ccc(-c2cc(C(=O)NC[C@H](O)CNC3Cc4ccccc4C3)on2)cc1`, the pIC50 is 5.61.
